The source of these data is US8247401B2, “P2X3 receptor antagonists for treatment of pain” (Merck Sharp & Dohme Corp., priority 2007, dated 2012).

This assay addresses T1, human P2X3 (Homo sapiens, UniProt P56373).
T1 construct: expressed in transfected cells
T1 sequence (P56373 1-397): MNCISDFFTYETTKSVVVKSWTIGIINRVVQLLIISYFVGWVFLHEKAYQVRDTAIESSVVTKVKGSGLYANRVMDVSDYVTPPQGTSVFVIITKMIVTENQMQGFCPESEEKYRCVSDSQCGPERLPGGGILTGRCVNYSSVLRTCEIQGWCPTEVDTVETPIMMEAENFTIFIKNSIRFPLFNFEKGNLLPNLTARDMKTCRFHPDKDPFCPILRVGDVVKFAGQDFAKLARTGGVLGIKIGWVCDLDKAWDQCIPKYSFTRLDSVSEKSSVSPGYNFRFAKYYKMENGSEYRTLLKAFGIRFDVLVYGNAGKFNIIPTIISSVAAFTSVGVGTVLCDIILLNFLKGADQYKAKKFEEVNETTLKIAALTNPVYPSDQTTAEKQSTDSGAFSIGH
Put plainly: Intracellular Calcium Measurement to Assess Antagonist Affinity (FLIPR, Fluo-4). The format is cell-based. Particulars: Intracellular Calcium Measurement assay; agonist α,β-meATP at EC50. The source says:
Generation of a Human P2X3 and P2X2/3 Stable Cell Line—Human P2X3 receptor cDNA (Accession number NM_002559) was subcloned as a 5′XhoI and 3′HindIII fragment into the expression vector pcDNA5/FRT (Invitrogen). Human P2X2 receptor cDNA (Accession number NM_174873) was subcloned as a 5′EcoRI and 3′NotI fragment into the expression vector pIRESneo2 (BD Biosciences Clontech). The human P2X3 expression construct was transfected using Lipofectamine 2000 (Invitrogen) into Flp-in—293 cells (Invitrogen) according to the manufacturer's directions. Cells positive for flp-mediated recombination of […] P2X3 were selected using 150 μg/ml hygromycin. The stable human P2X3 cell line was co-transfected with the human P2X2 expression construct using Lipofectamine 2000 as above and co-transfected cells selected using […] hygromycin and 1 mg/ml G418. The stable P2X3 cell line was propagated in DMEM, 10% FBS, 100 μg/ml hygromycin, and 100 units/ml penicillin and 100 μg/ml streptomycin, and maintained at 37° and 95% humidity. The stable P2X2/3 cell line was propagated as above with the addition of 500 μg/ml G418.
Intracellular Calcium Measurement to Assess Antagonist Affinity—A fluorescent imaging plate reader (FLIPR; Molecular Devices) was used to monitor intracellular calcium levels using the calcium-chelating dye Fluo-4 (Molecular Probes). The excitation and emission wavelengths used to monitor fluorescence were 488 nm and 530 nm, respectively. Cells expressing either human P2X3 or human P2X2/3 were plated at a density of 20,000 cells/well (20 μl/well) in 384-well black-walled plates approximately 20 hours before beginning the assay. On the day of the assay 20 μl of loading buffer (Hank's balanced salt solution, 2.5 mM CaCl2, 20 mM HEPES, 0.1% BSA, 2.5 mM probenecid, TR-40, Fluo-4, and 138 mM NMDG substituted for NaCl) is added and cells dye-loaded for 60 min in the dark at room temperature. Ten minutes prior to adding agonist, the antagonist was added in a volume of 10 μl and allowed to incubate at room temperature. During this period fluorescence data is collected at 3 sec intervals followed by 10 sec intervals. The agonist, α,β-meATP, is added at a 6× concentration ([α,β-meATP]final=EC50). Following agonist addition fluorescence was measured at 5 sec intervals and analyzed based on the increase in peak relative fluorescence units (RFU) compared to the basal fluorescence. Peak fluorescence was used to determine the inhibitory effect at each concentration of antagonist by the following equation: % Inhibition=100*(1−((RFU(drug)−RFU(control))/(RFU(DMSO only)−RFU(control)))) In vitro Electrophysiological Assay—Cells expressing human P2X3 receptors were grown to a confluence of 65-85% 20 to 32 hours prior to assay. […]
Broadly, the IC50 is the concentration that gives 50% inhibition. As for `Cc1ccc(-c2cc(C(=O)NC(C)c3nnc[nH]3)cc(N3CCOCC3)c2)c(F)c1` (stereo in doubt) [Example 4.109, 2′-Fluoro-4′-methyl-5-morpholin-4-yl-N-[(1R)-1-(1H-1,2,4-triazol-3-yl)ethyl]biphenyl-3-carboxamide], the IC50 was 20 nM. For `Cc1ccc(-c2cc(C(=O)N[C@H](C)c3ncc(F)cc3F)cc(-c3nnc(C4CC4)n3C)c2)nc1` [Example 4.3], the IC50 is 11 nM. In the case of `Cc1ccc(-c2cc(C(=O)N[C@H](C)c3ccc(F)cn3)cc(-c3ncccc3F)c2)nc1` [Example 4.252, 3-(3-Fluoropyridin-2-yl)-N-[(1R)-1-(5-fluoropyridin-2-yl)ethyl]-5-(5-methylpyridin-2-yl)benzamide], the IC50 is 8 nM. For `C[C@@H](NC(=O)c1cc(-c2ccc(Cl)cn2)cc(C(C)(C)O)c1)c1ccc(C(F)(F)F)[n+]([O-])c1` [Example 4.539, 3-(5-Chloropyridin-2-yl)-5-(1-hydroxy-1-methylethyl)-N-{(1R)-1-[1-oxido-6-(trifluoromethyl)pyridin-3-yl]-ethyl}benzamide], the IC50 worked out at 26 nM.
